Assay [1] concerns ERRγ2. The conditions noted are these: stated as known property; cited from earlier work.
The target in assay [2] is T1, ERβ (Homo sapiens, UniProt Q92731).
T1 construct: expressed in transfected cells; host or cells: CV-1 (African green monkey kidney)
The experiment in a line: Reporter gene assay, ERRγ3 coexisted with ERβ in CV-1 cells. Format: cell-based. Background: A reporter such as luciferase makes a cellular process visible.

The target in assay [3] is T2, TR (Homo sapiens, UniProt P10827).
T2 construct: expressed in transfected cells; host or cells: CV-1 (African green monkey kidney)
T2 sequence (P10827 1-410 isoform P10827-2): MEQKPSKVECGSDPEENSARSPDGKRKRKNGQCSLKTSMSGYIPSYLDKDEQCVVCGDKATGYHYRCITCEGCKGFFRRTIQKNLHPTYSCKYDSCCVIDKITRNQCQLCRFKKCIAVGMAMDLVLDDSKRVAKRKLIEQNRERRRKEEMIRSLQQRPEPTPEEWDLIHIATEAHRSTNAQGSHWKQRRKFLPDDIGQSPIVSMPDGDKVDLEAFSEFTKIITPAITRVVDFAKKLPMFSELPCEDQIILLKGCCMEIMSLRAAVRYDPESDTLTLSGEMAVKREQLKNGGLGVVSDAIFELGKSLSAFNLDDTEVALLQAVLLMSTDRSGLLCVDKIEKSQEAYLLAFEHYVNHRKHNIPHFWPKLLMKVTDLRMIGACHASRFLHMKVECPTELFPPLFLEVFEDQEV
The experiment in a line: Reporter gene assay, ERRγ3 coexisted with TR in CV-1 cells. It counts as cell-based.

In assay [4] the target is T3, GR (Homo sapiens, UniProt P04150).
T3 construct: expressed in transfected cells; host or cells: CV-1 (African green monkey kidney)
T3 sequence (P04150 1-777): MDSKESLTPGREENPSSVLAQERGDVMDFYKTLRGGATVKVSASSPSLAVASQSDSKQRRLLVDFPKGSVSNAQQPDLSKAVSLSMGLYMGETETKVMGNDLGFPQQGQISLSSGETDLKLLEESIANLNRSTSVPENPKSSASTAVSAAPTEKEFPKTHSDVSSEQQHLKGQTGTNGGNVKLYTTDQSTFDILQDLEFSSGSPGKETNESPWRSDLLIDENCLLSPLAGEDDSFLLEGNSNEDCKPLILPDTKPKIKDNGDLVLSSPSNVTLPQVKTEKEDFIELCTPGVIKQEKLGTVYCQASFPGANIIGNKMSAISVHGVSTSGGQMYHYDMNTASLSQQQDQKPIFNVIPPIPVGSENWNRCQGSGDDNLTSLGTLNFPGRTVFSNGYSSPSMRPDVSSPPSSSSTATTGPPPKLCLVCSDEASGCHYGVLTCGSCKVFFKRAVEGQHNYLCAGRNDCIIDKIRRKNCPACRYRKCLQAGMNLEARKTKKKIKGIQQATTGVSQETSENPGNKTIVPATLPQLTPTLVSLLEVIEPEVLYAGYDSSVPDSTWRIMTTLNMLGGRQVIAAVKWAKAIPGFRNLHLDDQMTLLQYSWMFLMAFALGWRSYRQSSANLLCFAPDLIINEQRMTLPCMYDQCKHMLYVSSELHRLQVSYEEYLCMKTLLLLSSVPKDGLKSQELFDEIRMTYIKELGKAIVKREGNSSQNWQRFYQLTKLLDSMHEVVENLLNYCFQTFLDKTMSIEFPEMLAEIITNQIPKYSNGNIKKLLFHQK
Description: Reporter gene assay, ERRγ3 coexisted with GR, pGRE-luc in CV-1 cells. It counts as cell-based. The conditions noted are these: 10^−5 M dexamethasone. The procedure: Transfection was performed as follows: CV-1 cells were resuspended in DMEM supplemented with 10% fetal bovine serum, 2000 U/l of penicillin G, and 100 mg/l of streptomycin to a concentration of 2×10^5 cells/2.5 ml. This was then seeded to a 6-well plate at 2.5 ml per well, and incubated for 18-24 hours in a CO2 incubator at 37° C. and 5% CO2. 1 μg of each of the expression plasmids for the transcription factors, the luciferase reporter plasmid, and another luciferase reporter plasmid used for normalization of the measured values (pRL-TK), were dissolved in Opti-MEM (Gibco BRL), to a total of 150 μl. 7 μl of the transfection reagent LipofectAMINE 2000 (Gibco BRL) was diluted in 143 μl of Opti-MEM, and this was added to the mixture drop by drop while stirring. The mixture was incubated for 20 minutes. […] Luciferase activity was measured using the Dual-Luciferase™ Reporter Assay System (Promega). […] The protocol for measurement was as follows: 50 μl of Luciferase Assay Reagent II was added to each well, stirred for 0.3 seconds, and measured for one second. 50 μl of Stop&Glo™ Reagent was then added, stirred for 0.3 seconds, and measured for one second. The measured values for firefly luciferase activity were corrected by dividing by the value for the Renilla luciferase activity, the internal control. Average values and standard errors were calculated from triplicate samples. […]

T1 sequence (Q92731 whole entry): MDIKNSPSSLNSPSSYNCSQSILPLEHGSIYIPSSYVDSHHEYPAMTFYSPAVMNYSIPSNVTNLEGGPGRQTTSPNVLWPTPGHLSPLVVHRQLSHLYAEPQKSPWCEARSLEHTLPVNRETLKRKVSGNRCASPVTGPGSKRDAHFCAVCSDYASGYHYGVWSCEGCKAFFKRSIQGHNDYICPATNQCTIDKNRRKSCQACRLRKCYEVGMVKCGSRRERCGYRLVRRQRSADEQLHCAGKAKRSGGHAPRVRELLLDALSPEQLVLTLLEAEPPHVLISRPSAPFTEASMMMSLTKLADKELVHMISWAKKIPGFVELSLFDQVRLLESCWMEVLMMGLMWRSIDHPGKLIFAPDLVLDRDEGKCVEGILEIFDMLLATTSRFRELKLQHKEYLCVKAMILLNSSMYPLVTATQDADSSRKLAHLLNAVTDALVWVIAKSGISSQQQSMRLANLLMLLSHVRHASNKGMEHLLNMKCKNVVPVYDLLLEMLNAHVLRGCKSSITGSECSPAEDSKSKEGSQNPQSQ
Chain of ERRγ2 (P62508 whole entry): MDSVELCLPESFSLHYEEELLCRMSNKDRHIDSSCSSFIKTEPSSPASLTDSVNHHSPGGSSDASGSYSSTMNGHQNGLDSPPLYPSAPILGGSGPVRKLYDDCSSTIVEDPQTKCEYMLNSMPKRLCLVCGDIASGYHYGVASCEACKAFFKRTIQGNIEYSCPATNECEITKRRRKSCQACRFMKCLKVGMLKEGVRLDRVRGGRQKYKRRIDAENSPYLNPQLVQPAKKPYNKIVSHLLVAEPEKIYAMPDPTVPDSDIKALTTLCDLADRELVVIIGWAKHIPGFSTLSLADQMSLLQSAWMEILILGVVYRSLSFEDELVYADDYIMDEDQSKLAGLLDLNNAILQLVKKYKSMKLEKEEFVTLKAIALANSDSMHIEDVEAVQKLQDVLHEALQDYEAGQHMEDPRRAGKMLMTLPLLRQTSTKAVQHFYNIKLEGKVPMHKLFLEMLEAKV

As to 4-hydroxytamoxifen [reference compound], the “binding to ERRγ2” value in assay [1] is reported as “capable of binding”. For the same molecule, the “effect of 4-hydroxytamoxifen on the enhancing function of ERRγ3 on ERβ” value in assay [2] (10^−5 M (R)-estradiol present) is given as “no function-enhancing effect”. Besides, the “effect of 4-hydroxytamoxifen on the enhancing function of ERRγ3 on TR” value in assay [3] (10^−5 M thyroxine present) was “no function-enhancing effect”. For the same molecule, the “effect of 4-hydroxytamoxifen on the inhibitory function of ERRγ3 on GR” value in assay [4] (10^−5 M 4-hydroxytamoxifen, FIG. 25B) is “reduced ERRγ3's inhibitory function”.

B1: ERRγ3: novel ERRγ isoform, nuclear receptor protein of 396 amino acids (SEQ ID NO: 2) lacking part of the DNA binding domain (protein, listed as Homo sapiens)
chain: MSNKDRHIDSSCSSFIKTEPSSPASLTDSVNHHSPGGSSDASGSYSSTMNGHQNGLDSPPLYPSAPILGGSGPVRKLYDDCSSTIVEDPQTKCEYMLNSMPKRLCLVCGDIASGYHYGVASCEACKAFFKRTIQGVRLDRVRGGRQKYKRRIDAENSPYLNPQLAQPAKKPYNKIVSHLLVAEPEKIYAMPDPTVPDSDIKALTTLCDLADRELVVIIGWAKHIPGFSTLSLADQMSLLQSAWMEILILGVVYRSLSFEDELVYADDYIMDEDQSKLAGLLDLNNAILQLVKKYKSMKLEKEEFVTLKAIALANSDSMHIEDVEAVQKLQDVLHEALQDYEAGQHMEDPRRAGKMLMTLPLLRQTSTKAVQHFYNIKLEGKVPMHKLFLEMLEAKV
As for B1, the “function enhancement of the transcription-controlling activity of ERβ” value in assay [2] (ERRγ3 with ERβ, 10^−5 M (R)-estradiol, FIG. 17) is 600-650%. The “function enhancement of the transcription-controlling activity of TR” value in assay [3] (ERRγ3 with TR, 10^−5 M thyroxine, FIG. 18) is reported as 128-229%. The “effect of ERRγ3 on the transcriptional stimulation activity of GR” value in assay [4] (FIG. 25) was “inhibited GR's transcriptional stimulation activity”.

The record behind these values is patent publication US20060148030A1, “Nuclear receptor err y 3” (FUJISAWA PHARMACEUTICAL CO., LTD, priority 2002, published 2006).
